Results published in patent US7851489B2, “Pyridinone compounds” (Bristol-Myers Squibb Company, priority 2006, dated 2010).
pIC50: −log10 of the molar value. Like-named read-outs stand apart in the source and are kept apart here.

Columns and labels:
[1] = test system: U87 human glioblastoma model; assay: In vivo efficacy against U87 glioblastoma xenografts
Source text: In Vivo Efficacy Determination […] FIG. 2. Antitumor activity against U87 glioblastoma xenografts

[2] = Pharmacokinetic parameters obtained in mice, 8 h oral exposure study; format: in vivo; details: mouse, serum; single oral dose 50 mg/kg, solution in 70% PEG400/30% water, fasted male Balb/C mice; read-out: Pharmacokinetic Parameters AUC0-8 h
Experimental: Pharmacokinetic Parameters Obtained in Mice. In a 8 h oral exposure studies, a single-dose of 50 mg/kg of the compounds were delivered as a solution in 70% PEG400/30% water by oral gavage to fasted adult male Balb/C mice (n=2 or 3 per compound). Three serum samples were collected from each mouse at 0.5, 1, 4, 8 h time points following oral dosing. The first two samples were obtained by retro-orbital bleed (˜100 μL/20-25 g mouse) and the third sample by cardiac puncture. The blood samples were allowed to clot on ice, centrifuged and then serum harvested. Plasma samples were stored at −20° C. prior to analysis. The plasma samples were analyzed for parent compound via HPLC coupled tandem mass spectrometry (LC/MS/MS).

[3] = test system: GTL-16 human gastric carcinoma model; assay: In vivo efficacy against GTL-16 gastric carcinoma xenografts
Source text: In Vivo Efficacy Determination […] FIG. 1. Antitumor activity against GTL-16 gastric carcinoma xenografts

GST-Met kinase = biological target: T1, GST-Met kinase (Homo sapiens, UniProt P08581); assay: Met kinase assay; format: biochemical; details: 1 μM ATP, polyGlu:Tyr (4:1) substrate, 60 min at 30° C.
T1 construct: host or cells: baculovirus expression system
Experimental: Incubation mixtures employed for the Met kinase assay contain a baculovirus expressed GST-Met kinase, the synthetic substrate polyGlu:Tyr, (4:1), ATP, ATP-γ-^33 P and buffer containing Mn^++, DTT, BSA, and Tris. Reactions were incubated for 60 minutes at 30° C. and stopped by the addition of cold trichloroacetic acid (TCA) to a final concentration 8%. TCA precipitates were collected onto GF/C unifilter plates (Packard Instrument Co., Meriden, Conn.) using a Filtermate universal harvester (Packard Instrument Co., Meriden, Conn.) and the filters are quantitated using a TopCount 96/384-well liquid scintillation counter (Packard Instrument Co., Meriden, Conn.). Dose response curves were generated to determine the concentration required to inhibit 50% of kinase activity (IC—50). Compounds were dissolved at 10 mM in dimethyl sulfoxide (DMSO) and evaluated at ten concentrations, each in duplicate. The final concentration of DMSO in the assay is 1.7%. IC—50 values were derived by non-linear regression.

CYP3A4 = biological target: T2, CYP3A4 (Homo sapiens, UniProt P08684); assay: Cytochrome P450 assay (recombinant human CYP isoforms, fluorescence); format: in vitro ADME
T2 construct: host or cells: baculovirus-infected insect cells
T2 sequence (P08684 whole entry, canonical isoform): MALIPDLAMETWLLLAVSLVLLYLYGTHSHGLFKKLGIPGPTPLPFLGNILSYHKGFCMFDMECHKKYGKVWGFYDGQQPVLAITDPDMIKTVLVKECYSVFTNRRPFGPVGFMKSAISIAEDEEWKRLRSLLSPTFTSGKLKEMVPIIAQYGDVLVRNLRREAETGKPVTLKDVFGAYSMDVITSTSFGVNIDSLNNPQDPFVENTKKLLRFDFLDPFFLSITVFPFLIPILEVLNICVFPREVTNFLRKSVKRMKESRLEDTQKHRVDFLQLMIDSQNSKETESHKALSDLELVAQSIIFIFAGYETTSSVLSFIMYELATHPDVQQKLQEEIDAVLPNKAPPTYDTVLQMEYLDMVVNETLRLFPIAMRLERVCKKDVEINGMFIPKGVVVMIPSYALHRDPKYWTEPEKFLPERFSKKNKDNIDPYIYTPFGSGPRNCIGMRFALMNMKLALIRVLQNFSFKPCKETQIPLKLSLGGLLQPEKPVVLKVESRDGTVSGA
Experimental: The ability of compound to inhibit the major human cytochrome P450s (CYPs) responsible for drug metabolism was evaluated in vitro using recombinant human CYP isoforms. […] CYP3A4 inhibition was evaluated with two substrates: 7-benzyloxy-4-trifluoromethylcoumarin (BFC) and resorufin benzyl ether (BzRes). A single concentration of each model substrate (at approximately the apparent Km, with the exception of BFC, which was tested below the apparent Km) and multiple concentrations of the test compounds, separated by approximately ½ log units, were tested in duplicate. Metabolism of the model substrates was assayed by the production of 7-hydroxy-3-cyanocoumarin, 3-[2-(N,N-diethylamino)ethyl]-7-hydroxy-4-methylcoumarin, 7-hydroxy-4-trifluoromethylcoumarin or resorufin, and measured via fluorescence detection. Assays were conducted in 96-well microtiter plates in the presence of an NADPH generating system. Positive control samples were included in these studies. […] The IC50 values were calculated utilizing XLfit curve-fitting software.

T1 sequence (P08581 25-1390): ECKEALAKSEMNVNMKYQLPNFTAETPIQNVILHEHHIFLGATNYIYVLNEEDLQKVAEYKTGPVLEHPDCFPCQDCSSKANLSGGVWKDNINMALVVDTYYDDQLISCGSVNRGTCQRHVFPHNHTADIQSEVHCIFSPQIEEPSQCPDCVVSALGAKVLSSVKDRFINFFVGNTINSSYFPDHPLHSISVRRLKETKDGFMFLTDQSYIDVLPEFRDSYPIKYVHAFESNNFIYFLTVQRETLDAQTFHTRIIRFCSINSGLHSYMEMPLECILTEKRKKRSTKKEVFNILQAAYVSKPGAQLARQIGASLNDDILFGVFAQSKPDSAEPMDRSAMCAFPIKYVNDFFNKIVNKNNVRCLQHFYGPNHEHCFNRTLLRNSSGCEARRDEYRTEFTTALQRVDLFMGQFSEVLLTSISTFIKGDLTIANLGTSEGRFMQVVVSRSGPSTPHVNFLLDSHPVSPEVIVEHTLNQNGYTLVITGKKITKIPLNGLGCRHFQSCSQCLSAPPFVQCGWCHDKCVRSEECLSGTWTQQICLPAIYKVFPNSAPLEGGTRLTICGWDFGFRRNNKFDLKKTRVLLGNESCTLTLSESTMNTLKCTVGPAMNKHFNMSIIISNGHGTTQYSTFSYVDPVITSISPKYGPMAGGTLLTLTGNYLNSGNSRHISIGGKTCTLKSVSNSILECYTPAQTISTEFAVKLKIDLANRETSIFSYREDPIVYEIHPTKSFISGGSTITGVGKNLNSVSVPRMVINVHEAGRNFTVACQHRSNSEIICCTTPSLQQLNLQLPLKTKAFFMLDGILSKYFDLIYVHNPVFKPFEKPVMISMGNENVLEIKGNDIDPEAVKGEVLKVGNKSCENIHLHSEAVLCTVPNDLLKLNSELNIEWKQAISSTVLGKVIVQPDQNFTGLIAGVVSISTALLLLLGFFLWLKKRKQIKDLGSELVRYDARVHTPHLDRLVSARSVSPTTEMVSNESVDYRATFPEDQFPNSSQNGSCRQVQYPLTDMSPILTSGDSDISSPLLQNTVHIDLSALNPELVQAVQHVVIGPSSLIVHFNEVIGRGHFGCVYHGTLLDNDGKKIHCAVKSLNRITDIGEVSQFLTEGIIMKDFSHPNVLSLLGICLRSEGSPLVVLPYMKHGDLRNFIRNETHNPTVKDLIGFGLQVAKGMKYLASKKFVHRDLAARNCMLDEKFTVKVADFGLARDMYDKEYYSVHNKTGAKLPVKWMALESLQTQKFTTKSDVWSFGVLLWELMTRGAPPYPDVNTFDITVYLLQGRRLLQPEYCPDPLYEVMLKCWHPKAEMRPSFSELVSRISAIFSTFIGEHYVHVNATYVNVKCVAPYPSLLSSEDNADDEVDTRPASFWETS

Question: What does the source list for `CCOc1ccn(-c2ccc(F)cc2)c(=O)c1C(=O)Nc1ccc(Oc2ccnc(N)c2Cl)c(F)c1` [Compound 1, N-(4-(2-Amino-3-chloropyridin-4-yloxy)-3-fluorophenyl)-4-ethoxy-1-(4-fluorophenyl)-2-oxo-1,2-dihydropyridine-3-carboxamide]?
Answer: antitumor activity ([1]; 25 mg/kg): complete tumor stasis; antitumor activity ([1]; 50 mg/kg): complete tumor stasis; AUC(0-t) [2]: 236 µM·h; overt toxicity ([3]; GTL-16 study, 6.25 mg/kg to 50 mg/kg dosed once a day for 14 days): No overt toxicity was observed; maximum efficacious dose level ([3]; GTL-16 tumor xenograft): 25 mg/kg; minimum efficacious dose (MED) ([3]; GTL-16 tumor xenograft): 6.25 mg/kg; antitumor activity ([3]; GTL-16 xenografts, 25 mg/kg): complete tumor stasis; antitumor activity ([3]; GTL-16 xenografts, 50 mg/kg): complete tumor stasis; antitumor activity at higher dose ([3]; GTL-16 xenografts, 100 mg/kg, previously described study): no increase in activity was observed; tumor growth inhibition (TGI) ([3]; GTL-16 xenografts, lowest dose level tested, 6.25 mg/kg): greater than 50%; tumor growth inhibition (TGI) ([3]; GTL-16 xenografts, multiple dose levels ranging from 6.25 mg/kg to 50 mg/kg, once a day for 14 days, for at least one tumor doubling time): greater than 50%; pIC50 (GST-Met kinase): 8.46

Question: Which AUC(0-t) [2] does the source give for `Cl.Nc1cc(Oc2ccc(NC(=O)c3cccn(-c4ccc(F)cc4)c3=O)cc2F)ccn1` [Compound 2, N-(4-(2-Aminopyridin-4-yloxy)-3-fluorophenyl)-1-(4-fluorophenyl)-2-oxo-1,2-dihydropyridine-3-carboxamide, hydrochloride salt] here?
Answer: 33 µM·h

Question: What about the pIC50 (CYP3A4; substrate 7-benzyloxy-4-trifluoromethylcoumarin (BFC), read-out: CYP 3A4-BFC IC50) of the same compound?
Answer: 6.29

Question: And the pIC50 (CYP3A4; substrate resorufin benzyl ether (BzRes), read-out: CYP 3A4-BZR IC50)?
Answer: 5.19
